# Experiments:
# Assay type in all cases: in vivo, human
# [1] = system: healthy women; assay: Example 2 section G: adverse events after single and 14-day multiple oral doses of Estetrol monohydrate/Drospirenone 15 mg/3 mg and 30 mg/6 mg; details: single dose then once daily for 14 days
# Protocol: The following treatments were administered to healthy women (between 15-50 years inclusive) according to the randomization code. • Placebo (n=16); • Group 15 mg: a single oral dose of 15 mg Estetrol monohydrate/3 mg Drospirenone (n=10) followed, after a washout of 14 days, by multiple oral doses of 15 mg Estetrol monohydrate/3 mg Drospirenone (n=10) once daily for 14 days; • Group 30 mg: a single oral dose of 30 mg Estetrol monohydrate/6 mg Drospirenone (n=10), followed, after a washout of 14 days, by multiple oral doses of 30 mg Estetrol monohydrate/6 mg Drospirenone (n=10) once daily for 14 days.
# Adverse events were recorded from first admission until completion of the follow-up visit (between 37 to 42 days after first day of treatment).
# [2] = system: post-menopausal women; assay: Example 2 dose-finding study: Hot Flush Weekly Weighted Score
# Protocol: Further, the terms “Hot Flush Weekly Weighted Score”, as used herein, corresponds to a score taking into account frequency and severity which is calculated by using the severity score (as calculated above): [(1×No. of mild VMS)+(2×No. of moderate VMS)+(3×No. of severe VMS)] during a 7 day period.
# All treatments (Estetrol, hereinafter E4 as monohydrate, [2.5 mg, 5 mg, 10 mg, 15 mg] capsule) were administered once daily (QD) per os for at least 12 consecutive weeks until the last biological assessments (Day 91 maximum) had been performed.
# A further analysis of the results was thus prepared, where data from these two doses were grouped with the placebo dose and compared to the 10 mg and 15 mg estetrol monohydrate doses.
# [3] = system: post-menopausal women; assay: Example 2: patients leaving the study
# Source text: 3. Patients Leaving the Study
# [4] = system: post-menopausal women; assay: Example 2: adverse events (AEs, TEAEs) per treatment group
# Source text: This is confirmed by the following statistical analysis. Using a Poisson regression model with a random effect for the patient and treatment group as a covariate to model the count of TEAEs in the different treatment groups, it can be shown that there is no statistical difference between the treatment groups (p value of 0.099). Second, a chi-square test was used to assess if the prevalence of patients reporting TEAEs in each treatment group was similar. No statistical difference was found between the treatment groups (p value of 0.575).
# [5] = 15 mg Estetrol monohydrate/3 mg Drospirenone
# [6] = 30 mg Estetrol monohydrate/6 mg Drospirenone
smiles,measurement,setting,value
"C[C@]12CC[C@@H]3c4ccc(O)cc4CC[C@H]3[C@@H]1[C@@H](O)[C@@H](O)[C@@H]2O [E4 monohydrate, estetrol monohydrate]","TEAEs by relationship to study drug, Related, subjects reporting one or more AE",[1]; [5],50%
same,"TEAEs by relationship to study drug, Total, subjects reporting one or more AE",[1]; [5],80%
same,"TEAEs by relationship to study drug, Unrelated, subjects reporting one or more AE",[1]; [5],50%
same,"TEAEs by relationship to study drug, Related, subjects reporting one or more AE",[1]; [6],50%
same,"TEAEs by relationship to study drug, Total, subjects reporting one or more AE",[1]; [6],70%
same,"TEAEs by relationship to study drug, Unrelated, subjects reporting one or more AE",[1]; [6],50%
same,"Hot Flush Weekly Weighted Score, relative change (% from baseline), Mean","[2]; 2.5 mg daily, week 0",0%
same,"Hot Flush Weekly Weighted Score, relative change (% from baseline), Mean","[2]; 2.5 mg daily, week 1",−22%
same,"Hot Flush Weekly Weighted Score, relative change (% from baseline), Mean","[2]; 2.5 mg daily, week 2",−32%
same,"Hot Flush Weekly Weighted Score, relative change (% from baseline), Mean","[2]; 2.5 mg daily, week 3",−43%
same,"Hot Flush Weekly Weighted Score, relative change (% from baseline), Mean","[2]; 2.5 mg daily, week 4",−47%
same,"Hot Flush Weekly Weighted Score, relative change (% from baseline), Mean","[2]; 2.5 mg daily, week 5",−48%
same,"Hot Flush Weekly Weighted Score, relative change (% from baseline), Mean","[2]; 2.5 mg daily, week 6",−51%
same,"Hot Flush Weekly Weighted Score, relative change (% from baseline), Mean","[2]; 2.5 mg daily, week 7",−53%
same,"Hot Flush Weekly Weighted Score, relative change (% from baseline), Mean","[2]; 2.5 mg daily, week 8",−55%
same,"Hot Flush Weekly Weighted Score, relative change (% from baseline), Mean","[2]; 2.5 mg daily, week 9",−57%
same,"Hot Flush Weekly Weighted Score, relative change (% from baseline), Mean","[2]; 2.5 mg daily, week 10",−57%
same,"Hot Flush Weekly Weighted Score, relative change (% from baseline), Mean","[2]; 2.5 mg daily, week 11",−56%
same,"Hot Flush Weekly Weighted Score, relative change (% from baseline), Mean","[2]; 2.5 mg daily, week 12",−57%
same,"Hot Flush Weekly Weighted Score, relative change (% from baseline), Mean","[2]; 5 mg daily, week 0",0%
same,"Hot Flush Weekly Weighted Score, relative change (% from baseline), Mean","[2]; 5 mg daily, week 1",−22%
same,"Hot Flush Weekly Weighted Score, relative change (% from baseline), Mean","[2]; 5 mg daily, week 2",−32%
same,"Hot Flush Weekly Weighted Score, relative change (% from baseline), Mean","[2]; 5 mg daily, week 3",−37%
same,"Hot Flush Weekly Weighted Score, relative change (% from baseline), Mean","[2]; 5 mg daily, week 4",−43%
same,"Hot Flush Weekly Weighted Score, relative change (% from baseline), Mean","[2]; 5 mg daily, week 5",−46%
same,"Hot Flush Weekly Weighted Score, relative change (% from baseline), Mean","[2]; 5 mg daily, week 6",−56%
same,"Hot Flush Weekly Weighted Score, relative change (% from baseline), Mean","[2]; 5 mg daily, week 7",−56%
same,"Hot Flush Weekly Weighted Score, relative change (% from baseline), Mean","[2]; 5 mg daily, week 8",−56%
same,"Hot Flush Weekly Weighted Score, relative change (% from baseline), Mean","[2]; 5 mg daily, week 9",−58%
same,"Hot Flush Weekly Weighted Score, relative change (% from baseline), Mean","[2]; 5 mg daily, week 10",−59%
same,"Hot Flush Weekly Weighted Score, relative change (% from baseline), Mean","[2]; 5 mg daily, week 11",−61%
same,"Hot Flush Weekly Weighted Score, relative change (% from baseline), Mean","[2]; 5 mg daily, week 12",−60%
same,"Hot Flush Weekly Weighted Score, relative change (% from baseline), Mean","[2]; 10 mg daily, week 0",0%
same,"Hot Flush Weekly Weighted Score, relative change (% from baseline), Mean","[2]; 10 mg daily, week 0, section B analysis",0%
same,"Hot Flush Weekly Weighted Score, relative change (% from baseline), Mean","[2]; 10 mg daily, week 1",−20%
same,"Hot Flush Weekly Weighted Score, relative change (% from baseline), Mean","[2]; 10 mg daily, week 1, section B analysis",−20%
same,"Hot Flush Weekly Weighted Score, relative change (% from baseline), Mean","[2]; 10 mg daily, week 2",−35%
same,"Hot Flush Weekly Weighted Score, relative change (% from baseline), Mean","[2]; 10 mg daily, week 3",−47%
same,"Hot Flush Weekly Weighted Score, relative change (% from baseline), Mean","[2]; 10 mg daily, week 4",−54%
same,"Hot Flush Weekly Weighted Score, relative change (% from baseline), Mean","[2]; 10 mg daily, week 5",−58%
same,"Hot Flush Weekly Weighted Score, relative change (% from baseline), Mean","[2]; 10 mg daily, week 7",−64%
same,"Hot Flush Weekly Weighted Score, relative change (% from baseline), Mean","[2]; 10 mg daily, week 7, section B analysis",−64%
same,"Hot Flush Weekly Weighted Score, relative change (% from baseline), Mean","[2]; 10 mg daily, week 8, section B analysis",−66%
same,"Hot Flush Weekly Weighted Score, relative change (% from baseline), Mean","[2]; 10 mg daily, week 9",−67%
same,"Hot Flush Weekly Weighted Score, relative change (% from baseline), Mean","[2]; 10 mg daily, week 9, section B analysis",−66%
same,"Hot Flush Weekly Weighted Score, relative change (% from baseline), Mean","[2]; 10 mg daily, week 10, section B analysis",−68%
same,"Hot Flush Weekly Weighted Score, relative change (% from baseline), Mean","[2]; 10 mg daily, week 11",−69%
same,"Hot Flush Weekly Weighted Score, relative change (% from baseline), Mean","[2]; 10 mg daily, week 11, section B analysis",−68%
same,"Hot Flush Weekly Weighted Score, relative change (% from baseline), Mean","[2]; 10 mg daily, week 12",−70%
same,"Hot Flush Weekly Weighted Score, relative change (% from baseline), Mean","[2]; 10 mg daily, week 12, section B analysis",−69%
same,"Hot Flush Weekly Weighted Score, relative change (% from baseline), Mean","[2]; 15 mg daily, week 0",0%
same,"Hot Flush Weekly Weighted Score, relative change (% from baseline), Mean","[2]; 15 mg daily, week 0, section B analysis",0%
same,"Hot Flush Weekly Weighted Score, relative change (% from baseline), Mean","[2]; 15 mg daily, week 1",−19%
same,"Hot Flush Weekly Weighted Score, relative change (% from baseline), Mean","[2]; 15 mg daily, week 1, section B analysis",−22%
same,"Hot Flush Weekly Weighted Score, relative change (% from baseline), Mean","[2]; 15 mg daily, week 2",−43%
same,"Hot Flush Weekly Weighted Score, relative change (% from baseline), Mean","[2]; 15 mg daily, week 3, section B analysis",−56%
same,"Hot Flush Weekly Weighted Score, relative change (% from baseline), Mean","[2]; 15 mg daily, week 4, section B analysis",−66%
same,"Hot Flush Weekly Weighted Score, relative change (% from baseline), Mean","[2]; 15 mg daily, week 5, section B analysis",−70%
same,"Hot Flush Weekly Weighted Score, relative change (% from baseline), Mean","[2]; 15 mg daily, week 6",−74%
same,"Hot Flush Weekly Weighted Score, relative change (% from baseline), Mean","[2]; 15 mg daily, week 6, section B analysis",−72%
same,"Hot Flush Weekly Weighted Score, relative change (% from baseline), Mean","[2]; 15 mg daily, week 8",−78%
same,"Hot Flush Weekly Weighted Score, relative change (% from baseline), Mean","[2]; 15 mg daily, week 8, section B analysis",−76%
same,"Hot Flush Weekly Weighted Score, relative change (% from baseline), Mean","[2]; 15 mg daily, week 9",−80%
same,"Hot Flush Weekly Weighted Score, relative change (% from baseline), Mean","[2]; 15 mg daily, week 9, section B analysis",−78%
same,"Hot Flush Weekly Weighted Score, relative change (% from baseline), Mean","[2]; 15 mg daily, week 10",−79%
same,"Hot Flush Weekly Weighted Score, relative change (% from baseline), Mean","[2]; 15 mg daily, week 11",−80%
same,"Hot Flush Weekly Weighted Score, relative change (% from baseline), Mean","[2]; 15 mg daily, week 11, section B analysis",−79%
same,"Hot Flush Weekly Weighted Score, relative change (% from baseline), Mean","[2]; 15 mg daily, week 12",−82%
same,"Hot Flush Weekly Weighted Score, relative change (% from baseline), Mean","[2]; 15 mg daily, week 12, section B analysis",−81%
same,Number of patients leaving the study,[3]; 2.5 mg daily,9
same,Number of patients leaving the study,[3]; 5 mg daily,11
same,Number of patients leaving the study,[3]; 10 mg daily,15
same,Number of patients leaving the study,[3]; 15 mg daily,8
same,Count of Treatment Emergent AEs (TEAEs),[4]; 2.5 mg daily,61
same,Percentage of patients with TEAE leading to Study Discontinuation,[4]; 2.5 mg daily,1.9
same,Percentage of patients with severe TEAE,[4]; 2.5 mg daily,7.7
same,Count of Treatment Emergent AEs (TEAEs),[4]; 5 mg daily,63
same,Percentage of patients with TEAE leading to Study Discontinuation,[4]; 5 mg daily,6.4
same,Percentage of patients with severe TEAE,[4]; 5 mg daily,10.6
same,Count of Treatment Emergent AEs (TEAEs),[4]; 10 mg daily,95
same,Percentage of patients with TEAE leading to Study Discontinuation,[4]; 10 mg daily,5.6
same,Percentage of patients with severe TEAE,[4]; 10 mg daily,7.4
same,average AEs per patient among patients who had AEs,[4]; 10 mg group,3.2 AEs per patient
same,Count of Treatment Emergent AEs (TEAEs),[4]; 15 mg daily,82
same,Percentage of patients with TEAE leading to Study Discontinuation,[4]; 15 mg daily,4.1
same,Percentage of patients with severe TEAE,[4]; 15 mg daily,6.1
same,average AEs per patient among patients who had AEs,[4]; 15 mg group,2.6 AEs
